{
  "source": "patent US3983105A",
  "about": "“Penicillins” (Bayer Aktiengesellschaft, priority 1971, dated 1976)",
  "key": {"[1]": {"test_system": "Pseudomonas aeruginosa", "experiment": "MIC, test tube serial dilution, Pseudomonas aeruginosa", "format": "cell-based"}, "[2]": {"test_system": "Klebsiella-Aerobacter", "experiment": "MIC, test tube serial dilution, Klebsiella-Aerobacter", "format": "cell-based"}, "[3]": {"test_system": "Escherichia coli", "experiment": "MIC, test tube serial dilution, Escherichia coli", "format": "cell-based"}, "[4]": {"test_system": "Proteus morganii", "experiment": "MIC, test tube serial dilution, Proteus morganii", "format": "cell-based"}, "[5]": {"test_system": "Proteus vulgaris", "experiment": "MIC, test tube serial dilution, Proteus vulgaris", "format": "cell-based"}, "[6]": {"test_system": "Streptococcus faecalis", "experiment": "MIC, test tube serial dilution, Streptococcus faecalis", "format": "cell-based"}, "[7]": {"test_system": "Staphylococcus aureus", "experiment": "MIC, test tube serial dilution, Staphylococcus aureus", "format": "cell-based"}, "[8]": {"experiment": "in vivo", "details": "mouse, iv"}, "[9]": {"test_system": "Serratia marcescens", "experiment": "MIC, test tube serial dilution, Serratia marcescens", "format": "cell-based"}, "[10]": {"test_system": "Providencia", "experiment": "MIC, test tube serial dilution, Providencia", "format": "cell-based", "details": "strain 930"}, "[11]": {"test_system": "Proteus rettgeri", "experiment": "MIC, test tube serial dilution, Proteus rettgeri", "format": "cell-based"}, "[12]": {"test_system": "Proteus mirabilis", "experiment": "MIC, test tube serial dilution, Proteus mirabilis", "format": "cell-based"}, "[13]": {"test_system": "Haemophilus influenzae", "experiment": "MIC, test tube serial dilution, Haemophilus influenzae", "format": "cell-based"}, "[14]": {"test_system": "Klebsiella-Aerobacter", "details": "in vivo; cited from earlier work"}},
  "note": "Several values for one entry are separate records, joined by “and”; a condition that tells them apart may be missing. Equal values may be shown once.",
  "data": [
    {"compound": "CNC(=O)N1CCN(C(=O)N[C@@H](C(=O)N[C@@H]2C(=O)N3[C@@H]2SC(C)(C)[C@@H]3C(=O)O)c2ccccc2)C1=O", "note": "[Example 2, Sodium D(-)-α-[(3-methylaminocarbonyl-imidazolidin-2-on-1-yl)-carbonylamino]-benzylpenicillin]", "values": [
      {"measurement": "MIC", "setting": "[1]; strain Bonn, 24 hours, 37°C", "result": 50, "unit": "U/ml"},
      {"measurement": "MIC", "setting": "[1]; strain Walter, 24 hours, 37°C", "result": 25, "unit": "U/ml"},
      {"measurement": "MIC", "setting": "[2]; strain 63, 24 hours, 37°C", "result": "12.5 U/ml and 12 U/ml"},
      {"measurement": "MIC", "setting": "[2]; strain K 10, 24 hours, 37°C", "result": 50, "unit": "U/ml"},
      {"measurement": "MIC", "setting": "[3]; strain 183/58, 24 hours, 37°C", "result": 1.6, "unit": "U/ml"},
      {"measurement": "MIC", "setting": "[3]; strain A 261, 24 hours, 37°C", "result": 100, "unit": "U/ml"},
      {"measurement": "MIC", "setting": "[3]; strain C 165, 24 hours, 37°C", "result": 1.6, "unit": "U/ml"},
      {"measurement": "MIC", "setting": "[4]; strain 932, 24 hours, 37°C", "result": 1.6, "unit": "U/ml"},
      {"measurement": "MIC", "setting": "[5]; unit assumed", "result": 6, "unit": "µg/mL"},
      {"measurement": "MIC", "setting": "[6]; ATCC 9790, 24 hours, 37°C", "result": 50, "unit": "U/ml"},
      {"measurement": "MIC", "setting": "[7]; strain 133, 24 hours, 37°C", "result": "< 0.8", "unit": "U/ml"},
      {"measurement": "MIC", "setting": "[7]; strain 1756 (BRL 1 756), 24 hours, 37°C", "result": 200, "unit": "U/ml"},
      {"measurement": "LD50", "setting": "[8]", "result": 3000, "unit": "mg/kg"}
    ]},
    {"compound": "CC1(C)S[C@@H]2[C@H](NC(=O)C(C(=O)O)c3ccccc3)C(=O)N2[C@H]1C(=O)O", "note": "(some centres unmarked) [Carbenicillin, reference compound]", "values": [
      {"measurement": "MIC", "setting": "[1]; strain A", "result": 25, "unit": "U/ml"},
      {"measurement": "MIC", "setting": "[1]; strain Bonn, 24 hours, 37°C", "result": 200, "unit": "U/ml"},
      {"measurement": "MIC", "setting": "[1]; strain E 27 500", "result": 100, "unit": "U/ml"},
      {"measurement": "MIC", "setting": "[1]; strain F 41, 24 hours, 37°C", "result": 100, "unit": "U/ml"},
      {"measurement": "MIC", "setting": "[1]; strain V 10 797", "result": 50, "unit": "U/ml"},
      {"measurement": "MIC", "setting": "[1]; strain V 10 818", "result": 100, "unit": "U/ml"},
      {"measurement": "MIC", "setting": "[1]; strain V 10 887", "result": 100, "unit": "U/ml"},
      {"measurement": "MIC", "setting": "[1]; strain V 10 900", "result": 50, "unit": "U/ml"},
      {"measurement": "MIC", "setting": "[1]; strain Walter, 24 hours, 37°C", "result": 100, "unit": "U/ml"},
      {"measurement": "MIC", "setting": "[2]; aerogenes 418", "result": 400, "unit": "U/ml"},
      {"measurement": "MIC", "setting": "[2]; strain 60", "result": 100, "unit": "U/ml"},
      {"measurement": "MIC", "setting": "[2]; strain 62", "result": 100, "unit": "U/ml"},
      {"measurement": "MIC", "setting": "[2]; strain 63, 24 hours, 37°C", "result": 400, "unit": "U/ml"},
      {"measurement": "MIC", "setting": "[2]; strain 69", "result": "> 400", "unit": "U/ml"},
      {"measurement": "MIC", "setting": "[2]; strain 70", "result": 400, "unit": "U/ml"},
      {"measurement": "MIC", "setting": "[2]; strain 75", "result": "> 400", "unit": "U/ml"},
      {"measurement": "MIC", "setting": "[2]; strain 1852", "result": "> 400", "unit": "U/ml"},
      {"measurement": "MIC", "setting": "[2]; strain 1871", "result": 400, "unit": "U/ml"},
      {"measurement": "MIC", "setting": "[2]; strain K 10, 24 hours, 37°C", "result": "> 400", "unit": "U/ml"},
      {"measurement": "MIC", "setting": "[3]; strain 14, 24 hours, 37°C", "result": 1.6, "unit": "U/ml"},
      {"measurement": "MIC", "setting": "[3]; strain 1465", "result": "> 400", "unit": "U/ml"},
      {"measurement": "MIC", "setting": "[3]; strain A 261, 24 hours, 37°C", "result": 400, "unit": "U/ml"},
      {"measurement": "MIC", "setting": "[3]; strain B 94", "result": 1.6, "unit": "U/ml"},
      {"measurement": "MIC", "setting": "[3]; strain N", "result": 6, "unit": "U/ml"},
      {"measurement": "MIC", "setting": "[3]; strain S", "result": 400, "unit": "U/ml"},
      {"measurement": "MIC", "setting": "[3]; strain T 7", "result": "> 400", "unit": "U/ml"},
      {"measurement": "MIC", "setting": "[3]; strain T 20/2", "result": "> 400", "unit": "U/ml"},
      {"measurement": "MIC", "setting": "[9]; strain 3", "result": 400, "unit": "U/ml"},
      {"measurement": "MIC", "setting": "[9]; strain 7", "result": 100, "unit": "U/ml"},
      {"measurement": "MIC", "setting": "[9]; strain 9", "result": 6, "unit": "U/ml"},
      {"measurement": "MIC", "setting": "[9]; strain 13", "result": 6, "unit": "U/ml"},
      {"measurement": "MIC", "setting": "[9]; strain K", "result": 6, "unit": "U/ml"},
      {"measurement": "MIC", "setting": "[10]", "result": 6, "unit": "U/ml"},
      {"measurement": "MIC", "setting": "[11]; Sp.", "result": 1.6, "unit": "U/ml"},
      {"measurement": "MIC", "setting": "[11]; strain 1 050", "result": "> 400", "unit": "U/ml"},
      {"measurement": "MIC", "setting": "[11]; strain 824", "result": "> 400", "unit": "U/ml"},
      {"measurement": "MIC", "setting": "[12]; Sp.", "result": 1.6, "unit": "U/ml"},
      {"measurement": "MIC", "setting": "[12]; strain 605", "result": 400, "unit": "U/ml"},
      {"measurement": "MIC", "setting": "[12]; strain G.", "result": 1.6, "unit": "U/ml"},
      {"measurement": "MIC", "setting": "[4]; strain 1 102", "result": "> 800", "unit": "U/ml"},
      {"measurement": "MIC", "setting": "[4]; strain 932, 24 hours, 37°C", "result": 6, "unit": "U/ml"},
      {"measurement": "MIC", "setting": "[5]; strain 3 400", "result": 50, "unit": "U/ml"},
      {"measurement": "MIC", "setting": "[13]; strain 2 689", "result": 1.6, "unit": "U/ml"},
      {"measurement": "MIC", "setting": "[13]; strain 2 718", "result": 0.8, "unit": "U/ml"},
      {"measurement": "MIC", "setting": "[13]; strain 2 786", "result": 1.6, "unit": "U/ml"},
      {"measurement": "MIC", "setting": "[13]; strain 2 788", "result": "< 0.4", "unit": "U/ml"},
      {"measurement": "MIC", "setting": "[6]; strain 8 698", "result": 100, "unit": "U/ml"},
      {"measurement": "MIC", "setting": "[6]; strain 8 709", "result": 200, "unit": "U/ml"},
      {"measurement": "MIC", "setting": "[6]; strain 8 711", "result": 50, "unit": "U/ml"},
      {"measurement": "MIC", "setting": "[7]; strain P 209", "result": "< 0.8", "unit": "U/ml"},
      {"measurement": "MIC", "setting": "[7]; strain SG 511", "result": "< 0.8", "unit": "U/ml"},
      {"measurement": "effectiveness against infections", "setting": "[14]", "result": "only effective in man in the case of infections caused by Klebsiella-Aerobacter if administered in a continuous high dosage"}
    ]}
  ]
}
